Assay results published in patent EP0825877B1, “COMPOSITION FOR PREVENTION OF POSTERIOR CAPSULE OPACIFICATION” (Pfizer Health AB, priority 1995, dated 1996).

What was measured:
[1] = system: secondary cataract formation; assay: In vivo secondary cataract formation (PCO wet mass), 5-FU single dose versus slow release; parameters: species or system rabbits; details: for inhibition of PCO: PCO measured as wet mass
Experimental: 5 mg of 5-FU was given to rabbits either as a single dose (instant release) or as a slow release formulation prepared according to Example 3 where 5 mg 5-FU was released over 3 or 12 days in vivo. The amount of secondary cataract formation in the rabbits were evaluated according to Lundgren at al (Lundgren B, Jonsson E and Rolfsen W, 1992, Acta Ophthalmol. Suppl 205:25-28). The single saline dose of 5-FU reduced the secondary cataract formation by 50% while the SR-formulation (SR-3 and SR-10) reduced the secondary cataract formation by 70 and 100% respectively.

[2] = Diffusion experiment in a Sundelöf cell; type: physicochemical; details: 100 µg/ml of Doxorubicin; Sundelöfcell; hyaluronate 10 mg/ml
Experimental: Doxorubicin is slowly released from the hyaluronate-doxorubicine solution. […] The diffusion of Doxorubicine out of the hyaluronate solution is more than three times slower than the diffusion of doxorubicine in water. In a diffusion experiment using 100 µg/ml of Doxorubicin in a Sundelöfcell (Sundelöf L-O, 1982, Anal. Biochem, 127,282-286, Laurent T C, Preston B N Sundelöf L-O Van Damme M P, 1982, Anal. Biochem, 127, 287-292), it took 20 hours for 20 % of doxorubicin in water to diffuse into the upper compartment as compared to 70 hours for the doxorubicine in hyaluronate (10 mg/ml).

[3] = system: secondary cataract formation; assay: In vivo study in rabbits: secondary cataract weighed two months after phacoemulsification, IOL implantation and doxorubicin injection; parameters: species or system Albino rabbits; details: 1 µg doxorubicin; 100 µl into the capsular bag behind the IOL; two months postoperatively
Experimental: Albino rabbits were used. In both eyes the crystalline lens was removed by phacoemusification. In both eyes a PMMA IOL was implanted into the capsular bag. In one eye 100 µl of the doxorubicin-Healon slution was injected into the capsular bag behind the IOL. The fellow eye received 100 µ 1 Healon. Two months postoperatively the animals were killed, and the secondary cataracts were removed and weighed to the neariest mg. In one group the doxorubicin was injected dissolved in ta buffer solution instead of Healon. This in order to compare the efficacy when doxorubicin was dissolved in either Healon or buffer. There was a dose dependent inhibitory effect of doxorubicin dissolved in Healon. The doses of 3, 1 and 0.3 µg all gave a significant decrease of the secondary cataract formation. When comparing the dosage 1 µg injected in either Healon of buffer, there was a significant better inibitory effect when doxorubicin was delivered in Healon.
The amount of secondary cataract tissue was typically: […]

Structure (SMILES) | inhibition of PCO ([1]; 5 mg administered as a single dose) | inhibition of PCO ([1]; 5 mg delivered over 2-3 days) | inhibition of PCO ([1]; 5 mg delivered over 10-12 days) | reduction of secondary cataract formation ([1]; 5 mg of 5-FU, single saline dose or slow release over 3 or 12 days) | time for 20 % of doxorubicin to diffuse into the upper compartment [2] | amount of secondary cataract tissue [3]
O=c1[nH]cc(F)c(=O)[nH]1 [5-FU, 5-fluoro-uracil] | 50% | 70% | > 90% | 50% |  | 
COc1cccc2c1C(=O)c1c(O)c3c(c(O)c1C2=O)C[C@@](O)(C(=O)CO)C[C@@H]3O[C@H]1C[C@H](N)[C@H](O)[C@H](C)O1 [doxorubicin in buffer, doxorubicin] |  |  |  |  | 20 h | 65 ± 15 mg
